Measurements as given in patent US9279107B2, “Simplified basic media for human pluripotent cell culture” (WISCONSIN ALUMNI RESEARCH FOUNDATION, priority 2010, dated 2016).

Columns and labels:
Format in all cases: cell-based, human
[1] = system: H1 cells; assay: Oct4 expression by flow cytometry as indicator of pluripotency
Experimental: As described in Example 3, human pluripotent cells, such as H1, H9, and iPS cells, could be grown and passaged over 15 times in DF5S but were prone to differentiate, such that extra care is needed to sustain pluripotency in DF5S. Because pluripotency could be maintained more easily in TeSR™, growth factors present in TeSR™ were added individually to DF5SFe used to grow H1 cells that were previously cultured in DF5S without differentiating to identify factors supporting long-term pluripotency. Cells were passaged approximately one day after reaching confluency, facilitating cell differentiation, and Oct4 expression, assessed by flow cytometry, was used as indicator of pluripotency.
Human pluripotent cells grown in DF5SFe elongated and lined up along each other, resembling a “spindle” shape just prior to differentiation. […] Thus, recombinant proteins of the TGF-β pathway were tested for their ability to support long-term pluripotency.

[2] = system: iPS cells; assay: Long-term pluripotency of lentiviral iPS cell lines; conditions: added to DF5SFe; TGF-β 2 ng/ml or NODAL 100 ng/ml
Excerpt: Human ES cell lines, such as H1 and H9 have a culture history that includes exposure to various complex culture components, such as FBS, feeder cells, and knockout serum replacer. Exposure to these components could conceivably create dependency on these components and, consequently, alter cellular response to simplified media. Culture history might play a lesser role for iPS cells, derived from reprogrammed somatic cells, as derivation conditions are less complex. Therefore, different factors were tested with two original lentiviral iPS cell lines (Yu, et al., Science 318:1917 (2007)) grown in DF5SFe. Cells were transferred from MEF plates directly into DF5SFe medium for one passage and then passaged into various growth factor conditions. […] Pluripotency surface markers SSEA4, SSEA3, Tra-1-60, and Tra-1-81 were also expressed. Cells with normal karyotypes were continuously maintained for more than 20 passages. The cells were capable of forming teratomas 5-7 weeks after injection into severe combined immunodeficient (SCID) mice.

[3] = system: H1 cells; assay: NANOG mRNA expression; conditions: added to DF5S; NODAL 100 ng/ml or TGF-β 2 ng/ml; compared to DF5S
Excerpt: DF5S was used to expand H1 cells. Cells grown in DF5S were more prone to differentiate than cells grown in TeSR™. However, H1 cells could be grown for several weeks (more than 15 passages), during which the cells maintained human ES cell morphology and high levels of OCT4 expression (FIG. 1E, FIG. 1F). […] DF5S+NODAL also supported pluripotency of the two tested human iPS cell lines, as determined by high expression of the pluripotency marker OCT4. All cells (hES cells and iPS cells) grown in DF5S with either NODAL or TGF-β maintained a normal karyotype after long-term passage.

[4] = system: foreskin cells; assay: Reprogramming of foreskin fibroblasts to iPS cells; conditions: foreskin fibroblasts
Experimental: Available reprogramming protocols include incubation of the cells in FBS in the first several days after viral transduction or electroporation, prior to switching the cells to UM100 (U.S. Pat. No. 7,439,064, incorporated herein as if set forth in its entirety) or CM. The simplified media described in previous Examples were tested for their ability to support reprogramming.
To determine if DF5S-based media can be used for viral-free iPS cell derivation, foreskin cells were reprogrammed using a viral-free episomal vector, as described in Yu et al., Science 324:797 (2009), incorporated herein by reference as if set forth in its entirety, at hypoxic conditions (O5C10).
Plasmid combinations #6 and #19 were used for the reprogramming. In order to enhance the plasmid entry into the nucleus, ENBA mRNA was electroporated along with plasmid DNA. Around one million cells were transferred onto two 6-well plates in DF5SFeC for 5 days. Medium was then switched to DF5SFe for another 18-25 days. Cells of some of the wells were passaged for a second time using a 1:6 ratio at different time points.

[5] = system: patient cell lines OAT, PRPF8-2, GRC M1-29; assay: Reprogramming of adult donor cell lines with episomal vectors; conditions: TGF-β added to the reprogramming media

Substance: transforming growth factor beta [TGF-β]
- Oct4 expression ([1]; DF5SFe supplemented with TGF-β at TeSR concentration (0.6 ng/ml)): low levels of Oct4 expression
- Oct4 expression ([1]; DF5SFe supplemented with TGF-β at higher concentration (1 ng/ml)): maintain high Oct4 expression
- long-term pluripotency [2]: supported long-term pluripotency of iPS cells
- NANOG mRNA level [3]: significantly higher levels of NANOG mRNA
- number of colonies during reprogramming [4]: increased numbers of colonies
- number of true iPS cell colonies ([4]; TGF-β addition): remained low
- number of iPS clones [5]: not increased significantly
- total number of colonies [5]: increased significantly
